{"source": "patent US10912819B2", "about": "“Neuroprotective peptides derived from activity-dependent neuroprotective protein for treatment of neurological diseases” (priority 2016, dated 2021)", "key": {"Adnp^+/− mice [1]": {"tested_on": "Adnp^+/− mice", "experiment": "Social memory test", "assay_type": "in vivo", "procedure": "FIG. 3. NAP treatment increases social memory. Animal performance is shown. (A, animals were as in FIG. 2A,B; n=9-12 per group). Data are expressed as mean±SEM total time (sec) spent exploring mice designated by relative discrimination index (D2=(b−a)/(a+b); b=time sniffing novel mouse, a=time sniffing familiar mouse). An empty wire cup and a cup containing target mouse (“familiar”) were placed in the center of the right or left chamber. After 3 hours, a novel mouse was put inside the empty cup, while the other cup contained the familiar mouse. The Adnp^+/− mice spent less time in exploring the novel mouse, as compared to Adnp^+/+ mice.\n(§1) Experiments performed as we described in Malishkevich et al., 2015 (37) and Amram et al., Mol Psychiatry. 2016 October; 21(10):1467-76 (7). 3-6 month-old male mice were used, drug application (0.5 μg/5 μl/mouse) was once daily, for one month and then behavioral assays were initiated together with drug application. In experiments with the vehicle termed DD (NAP-benzalkonium), drug application was at 2 months of age and continued as above. Open field experiments (16, 17) and elevated plus maze evaluations (18) were carried out as before."}, "Adnp^+/− mice [2]": {"tested_on": "Adnp^+/− mice", "experiment": "Odor discrimination test", "assay_type": "in vivo", "procedure": "As social memory depends on olfactory function, NAP treatment was also tested in odor discrimination test. Odors were presented on a suspended cotton swab to the test mouse placed into the clean cage with fresh shavings. Each mouse was tested during three consecutive 2-min periods for each odor, with 2-min intervals between presentations. The x axis indicates the consecutive number of the odor exposure period. The time that the mouse smelled the swab was recorded (beginning whenever the animal oriented its nostrils toward the cotton swab, within 2 cm or less). (Malishkevich et al., Transl Psychiatry (2015) 5, e501; Amram et al., Mol Psychiatry. 2016 10:1467-76)."}, "[3]": {"tested_on": "Adnp^+/+ and Adnp^+/− male mice", "experiment": "Open field test", "assay_type": "in vivo", "conditions": "15 min", "procedure": "FIG. 5. […] Furthermore, NAP ameliorates motor dysfunction in Adnp^+/− mice. Each male mouse (n=9-12 per group) was placed in the middle of the field and allowed to freely explore the arena for 15 min. The duration in center zone (A), and the total path traveled (B) were measured by the Ethovision XT video tracking system (Noldus Inc. Leesburg, Va.).\nas §1"}, "Adnp^+/− mice [4]": {"tested_on": "Adnp^+/− mice", "experiment": "Grip strength test", "assay_type": "in vivo", "conditions": "male mice, treatment from 2 months of age, 0.5 μg NAP/mouse/day intranasal in DD, 5 weeks; p<0.05", "procedure": "The grip strength test measures forelimbs muscle strength using the UgoBasile 47200-Grip-Strength Meter. Each animal was tested five times and the peak force of each mouse was recorded. Data are expressed as mean±SEM."}, "Adnp^+/− mice [5]": {"tested_on": "Adnp^+/− mice", "experiment": "MRI diffusion tensor imaging of chronically treated brains", "assay_type": "in vivo", "conditions": "NAP in CB vs CB-treated Adnp^+/− mice", "procedure": "MRI was performed on a 7.0 T/30 spectrometer (Bruker, Rheinstetten, Germany) using a volume coil for excitation and a rat quadrature coil for acquisition. The MRI protocols included coronal T2 and diffusion tensor imaging (DTI). T2 weighted images obtained with RARE sequence, with repetition time=3000 msec and echo time=49 msec, RARE factor 8, 4 averages, field of view of 2×2 cm, matrix dimensions of 256×256 and 24 slices of 0.5 mm thickness with no gap. The 24 coronal sections were used for volumetric analysis of the whole brain, Lateral ventricle and Hippocampus. DTI was obtained using a diffusion-weighted (DW) spin-echo echo-planar-imaging (EPI) pulse sequence with the following parameters: TR/TE=4000/25 ms, Δ/δ=10/4.5 ms, 4 EPI segments and 32 non-collinear gradient directions with a single b value (1000 sec/mm^2) and two images with b value of 0 sec/mm2 (referred to as b0). Geometrical parameters were: 24 slices of 0.5 mm thickness, matrix size of 128×128 and FOV of 20 mm^2). The imaging protocol was repeated 3 times for signal averaging and to compensate for acquisition where significant head motion was observed. Image analysis included DTI analysis of the DW-EPI images to produce the FA, radial, and axial diffusivity indexed maps."}, "Foxp2": {"tested_on": "Foxp2", "experiment": "Foxp2 mRNA expression in the tongue, quantitative real-time PCR", "assay_type": "in vivo", "conditions": "4-month-old mice treated with NAP/DD, normalized to Gapdh; increased in Adnp-deficient mice", "procedure": "(B) Foxp2 (the language-linked gene) expression in the tongue is increased in Adnp-deficient mice and is normalized by NAP. Tongue total RNA was extracted from 4-month-old mice (treated with NAP/DD as above) and analyzed for Foxp2 and Gapdh mRNA expression by quantitative real-time PCR (n=3-7 animals per experimental group). Gapdh served as a normalizing transcript. […] Two-way ANOVA analysis was performed using SigmaPlot. Sexual dichotomy determined by t-test analysis was also observed for the increased Foxp2 expression between Adnp males and females (**p<0.01).\n(§2) Quantitative reverse transcription real time polymerase chain reaction (RT-PCR) was performed as before (18, 37)."}, "Akap6 [6]": {"tested_on": "Akap6", "experiment": "Akap6 tongue gene expression, quantitative real-time PCR", "assay_type": "in vivo, mice", "procedure": "Tongue total RNA was extracted from 4-month-old mice (treated with NAP/DD as above) and analyzed for Akap6, Hprt, and Gapdh mRNA expression by quantitative real-time PCR (n=6-14 replicates per experimental group). HPRT and Gapdh served as normalizing transcripts.\nas §2"}, "Akap6 [7]": {"tested_on": "Akap6", "experiment": "Hippocampal Akap6 mRNA expression, quantitative real-time PCR", "assay_type": "in vivo", "conditions": "7.5-month-old mice treated with NAP/CB, normalized to Hprt", "procedure": "(§3) In females, NAP regulates genes deregulated with ADNP mutation in the hippocampus. […] Sexual dichotomy determined by t-test analysis was also observed for Akap6 and Chl1 expression between Adnp^+/− males and females (#p<0.05, ##p<0.01, ###p<0.001).\nas §2"}, "Chl1": {"tested_on": "Chl1", "experiment": "Hippocampal Chl1 mRNA expression, quantitative real-time PCR", "assay_type": "in vivo", "conditions": "7.5-month-old mice treated with NAP/CB, FIG. 8F", "procedure": "as §3, §2"}, "schizophrenia patients": {"tested_on": "schizophrenia patients", "conditions": "clinical study; cited from earlier work"}, "[8]": {"conditions": "5-month-old mice, 0.5 μg NAP/mouse/day intranasal in CB, 8 weeks, NAP vs vehicle p<0.05"}, "[9]": {"conditions": "tongue, 4-month-old mice, NAP/DD, p<0.05"}}, "note": "“Also recorded” adds a separate entry of the source."}
{"smiles": "CC[C@H](C)[C@H](NC(=O)[C@H](CO)NC(=O)[C@@H](NC(=O)[C@@H]1CCCN1C(=O)[C@H](C)NC(=O)[C@@H](N)CC(N)=O)C(C)C)C(=O)N1CCC[C@H]1C(=O)N[C@@H](CCC(N)=O)C(=O)O", "note": "[NAP]", "values": [{"measurement": "social memory, females", "setting": "Adnp^+/− mice [1]; 2-month-old mice, 0.5 μg NAP/mouse/day intranasal in DD, 7 weeks, NAP vs vehicle p<0.05", "value": "significant difference"}, {"measurement": "social memory, females", "setting": "Adnp^+/− mice [1]; [8]", "value": "significant difference"}, {"measurement": "social memory, males", "setting": "Adnp^+/− mice [1]; [8]", "value": "significant difference"}, {"measurement": "social memory (relative discrimination index novel vs familiar mouse)", "setting": "Adnp^+/− mice [1]; male mice 6-9 months, NAP in CB intranasal, FIG. 3A, NAP vs vehicle p<0.001", "value": "improved social memory"}, {"measurement": "general olfaction ability (AUC), males", "setting": "Adnp^+/− mice [2]; 2-month-old mice (n=3-4), NAP intranasal in DD, 8 weeks, two-way ANOVA p=0.046", "value": "main effect for treatment"}, {"measurement": "general olfaction ability (AUC), females", "setting": "Adnp^+/− mice [2]; 5-month-old mice, NAP intranasal in CB, 9 weeks, NAP vs vehicle p<0.01", "value": "significant difference"}, {"measurement": "general olfaction ability (AUC), males", "setting": "Adnp^+/− mice [2]; 5-month-old mice, NAP intranasal in CB, 9 weeks, NAP vs vehicle p<0.05", "value": "significant difference"}, {"measurement": "general change in olfactory behavior", "setting": "Adnp^+/− mice [2]; FIG. 3D-G, both sexes, CB and DD", "value": "apparently normalized"}, {"measurement": "duration in center zone", "setting": "[3]; male mice of both genotypes, NAP-treated vs vehicle-treated p<0.05", "value": "staying longer time at the center of the field"}, {"measurement": "total path traveled (slight hyperactivity of Adnp^+/− mice)", "setting": "[3]; male mice", "value": "not affecting the slight hyperactivity"}, {"measurement": "forelimbs muscle strength (grip force)", "setting": "Adnp^+/− mice [4]", "value": "significantly improving it"}, {"measurement": "hippocampal mean diffusivity (MD)", "setting": "Adnp^+/− mice [5]; hippocampal area −1.84 mm from Bregma", "value": "although insignificantly, was reduced"}, {"measurement": "hippocampal fractional anisotropy (FA)", "setting": "Adnp^+/− mice [5]; hippocampal area −2.34 mm from Bregma, p<0.05", "value": "significantly reduced"}, {"measurement": "Foxp2 expression in the tongue, females", "setting": "Foxp2", "value": "decreasing it"}, {"measurement": "Foxp2 expression in the tongue, males", "setting": "Foxp2", "value": "normalizing it"}, {"measurement": "dysregulated Akap6 expression in the tongue", "setting": "Akap6 [6]; FIG. 8 C,D", "value": "amelioration"}, {"measurement": "Akap6 normalized to Gapdh: vehicle Adnp^+/− female mice compared to NAP-treated Adnp^+/− mice", "setting": "Akap6 [6]; tongue, 4-month-old mice, NAP/DD", "value": "significantly increased expression"}, {"measurement": "Akap6 normalized to Gapdh: NAP-treated Adnp^+/− male mice compared to vehicle-treated", "setting": "Akap6 [6]; [9]", "value": "significantly increased"}, {"measurement": "Akap6 normalized to Hprt: vehicle Adnp^+/− male mice compared to NAP-treated Adnp^+/− mice", "setting": "Akap6 [6]; [9]", "value": "significantly decreased"}, {"measurement": "hippocampal Akap6 expression, females, NAP-treated vs vehicle-treated Adnp^+/− mice", "setting": "Akap6 [7]", "value": "ameliorated; also recorded: significantly increased expression"}, {"measurement": "hippocampal Chl1 expression", "setting": "Chl1", "value": "also regulated by NAP"}, {"measurement": "functional activities of daily living", "setting": "schizophrenia patients", "value": "protection of functional activities of daily living"}]}
